Results reported in patent publication US4199501A, “Peptides related to somatostatin” (Eli Lilly and Company, priority 1978, dated 1980).

How the values were obtained:
[1] = tested on: serum glucagon; assay: Glucagon Inhibition In Dogs (L-alanine infusion, serum glucagon by radioimmunoassay); type: in vivo, dog
Protocol: (§1) B. Insulin and Glucagon Inhibition In Dogs:
(§2) A normal dog is fasted overnight. An intravenous (I.V.) infusion of the test compound (dissolved in saline) is begun. Thirty minutes thereafter an additional infusion of L-alanine (dissolved in saline) is begun and is continued for a total of 15 minutes so that a total dose of about 1 mmole of L-alanine per kg. body weight is given. Infusion of the test compound is continued for an additional 15 minute period.
(§3) Blood samples are taken periodically before (at -20, -10 and -1 minutes) and after (5, 10, 15, 30, 35, 40, 45, 50, 60, 90, 120 and 150 minutes) the start of the infusion of the test compound. The serum insulin and serum glucagon concentrations in the blood are determined by radioimmunoassay. A plot is made of the glucagon and insulin concentrations versus time. The plot obtained from the test compound is compared to plots obtained from somatostatin and saline (controls) in similar experiments.
(§4) Infusion of L-alanine (in the absence of somatostatin or active test compound) causes an abrupt increase in serum insulin and glucagon concentrations. The concentrations return to basal levels after the L-alanine infusion is terminated.

[2] = tested on: growth hormone (GH) secretion; assay: Growth Hormone Inhibition In Rats (pentobarbital-stimulated GH secretion, serum GH by radioimmunoassay); type: in vivo; design: Serum Growth Hormone Conc. Mean ± SEM: unit not given here; conditions: male rats; for % Inhibition of GH release (as compared to saline controls): 20 minutes; for Serum Growth Hormone Conc. Mean ± SEM: with sodium pentobarbital 4 mg/rat I.P., blood 20 minutes later
Protocol: A. Growth Hormone Inhibition In Rats:
This test is a modification of the method of P. Brazeau et al. Endocrinology, 94, 184 (1974). Male rats (weighing 100-110 g.) are divided into three groups of eight rats each. Each rat is administered sodium pentobarbital at a dose of 4 mg/rat (I.P.) to stimulate growth hormone (GH) secretion. Simultaneously, one group of rats receives the test compound (S.C.); the second group receives somatostatin (S.C.); and the third group (control) receives saline (S.C.). Twenty-minutes later, the animals are decapitated and blood samples are collected. The serum concentration of growth hormone (GH) is determined by radioimmunoassay. The mean GH concentration (± standard error of the mean) is calculated for each group. The percent inhibition of GH release (as compared to saline controls) is then calculated for the test compound and for somatostatin. When tested as above-described, the peptide of Example 4, (D-Ala^2, D-Ala^5, Cha^6, D-Trp^8, D-Val^10 -somatastatin) representative of the peptides of Formula III, gave the results set forth below in Table I: […]

[3] = tested on: serum insulin; assay: Insulin Inhibition In Dogs (L-alanine infusion, serum insulin by radioimmunoassay); type: in vivo, dog
Protocol: as §1, §2, §3, §4

[4] = dog, I.V. infusion alone (no L-alanine)
[5] = dog, I.V. infusion in the presence of L-alanine
[6] = normal fasted dog, I.V. infusion at doses of 0.195 and 0.230 μg/Kg/min, L-alanine infusion

Molecule	effect on basal serum concentration of glucagon [1, 4]	effect on increase in glucagon concentration induced by L-alanine [1, 5]	% Inhibition of GH release (as compared to saline controls) ([2]; dose 2 (mg/kg) S.C.) [%]	% Inhibition of GH release (as compared to saline controls) ([2]; dose 50 (mg/kg) S.C.) [%]	effect on basal serum concentration of insulin [3, 4]	effect on increase in insulin concentration induced by L-alanine [3, 5]	inhibition of glucagon concentration [1, 6]	Serum Growth Hormone Conc. Mean ± SEM ([2]; dose 2 (mg/kg) S.C.)	Serum Growth Hormone Conc. Mean ± SEM ([2]; dose 50 (mg/kg) S.C.)	inhibition of insulin concentration [3, 6]
C[C@H](N)C(=O)NCC(=O)N[C@H]1CSSC[C@@H](C(=O)O)NC(=O)[C@H](CO)NC(=O)[C@H]([C@@H](C)O)NC(=O)[C@H](Cc2ccccc2)NC(=O)[C@H]([C@@H](C)O)NC(=O)[C@H](CCCCN)NC(=O)[C@H](Cc2c[nH]c3ccccc23)NC(=O)[C@H](Cc2ccccc2)NC(=O)[C@H](Cc2ccccc2)NC(=O)[C@H](CC(N)=O)NC(=O)[C@H](CCCCN)NC1=O [Somatostatin]	causes a decrease	inhibits the increase	22	64	causes a decrease	inhibits the increase				
L-Alanyl-D-alanyl-L-cysteinyl-L-lysyl-D-alanyl-L-cyclohexylalanyl-L-phenylalanyl-D-tryptophyl-L-lysyl-D-valyl-L-phenylalanyl-L-threonyl-L-seryl-L-cysteine cyclic (3->14) disulfide [Example 4]			36	73			no significant inhibition	71.6 ± 29.5	29.8 ± 18.6	no significant inhibition
